According to paper PMC10222203 (Pharmaceutics, 2023):
Values joined by “and” are separate entries in the source; they are usually repeats but may differ in a detail not shown here. Equal values may be shown once. Read-outs that look alike come from different tables or passages of the source.

What was measured:
in vivo = details: rat; for Half-life, t½ / half-life: 10 min intravenous infusion; for Half-life, t½ / AUC(0-inf) / Vd / clearance / half-life: 0.5 mg/kg; for AUC(0-inf) / Vd / clearance / half-life: iv; for half-life: t½
Description: Since previous pharmacokinetic data were extremely sparse, a pilot study was performed in rats (n = 2), and simulations were performed in Berkeley Madonna (version 8.3.18 for Windows, Berkeley, CA, USA), defining suitable dose and sampling intervals from the parameters obtained in the pilot study. The surgical implantation of catheters made of polyethylene (PE50) in the femoral vein and artery for dosing of peptide and sampling of blood, respectively, was performed the day before experiments under isoflurane anaesthesia. The animals were then housed in a CMA120 system (CMA, Solna, Sweden) for freely moving animals with ad libitum access to food and water. […] All samples were added to heparinized low-binding Eppendorf tubes. The blood samples were centrifuged, and plasma was transferred to new Eppendorf tubes and immediately frozen at −20 °C. After bioanalysis, the area under the plasma concentration–time curve (AUC) was determined by the trapezoidal rule with extrapolation to time infinity followed by calculation of systemic clearance (CL), apparent volume of distribution (Vd), and half-life (t½).

[1] = rat; for Kp at 4 h / Kp uu: in vivo; for Kp at 4 h / Total brain-to-plasma concentration ratio, Kp,brain: 0.5 mg/kg, 4 h infusion, total dose 0.5 mg/kg; for Kp at 4 h: Total brain-to-plasma concentration ratio, Kp,brain; for Kp at 4 h / Kp uu / Kp,uu,brain as percent equilibrating across the BBB / Total brain-to-plasma concentration ratio, Kp,brain / Unbound brain-to-plasma concentration ratio, Kp,uu,brain: steady state; for Kp uu: Unbound brain-to-plasma concentration ratio, Kp,uu,brain; for Kp uu / Unbound brain-to-plasma concentration ratio, Kp,uu,brain: Kp,brain/(fu,plasma × Vu,brain); for Total steady-state plasma concentration, Cplasma,ss: listed in Table S3
Description: In order to assure the accurate assessment of the extent of BBB transport and to minimize the use of animals, the achievement of steady-state conditions of total plasma concentration and equilibration across the blood–brain interface are critical. […] The infusion was administered through the catheter placed in the femoral vein. Blood (200 µL) was sampled from the catheter in the femoral artery at 1, 2, and 3 h into heparinized tubes to ensure that steady-state conditions were obtained in plasma. At 4 h, blood was sampled through heart puncture using EDTA vacutainers (BD, Eysins, Switzerland), and the whole brain was collected. The blood samples were centrifuged, and plasma was collected. All samples were immediately frozen on dry ice and then kept at −20 °C pending analysis.
The in vivo total brain-to-plasma concentration ratio, Kp,brain, was studied by measuring steady-state concentrations in plasma and the total amount in the brain (Equation (1)). (1) Kp,brain=Abrain/Cplasma where Abrain is the total amount of peptide in the brain calculated using Equation (2), including compensation for the residual cerebral blood, and Cplasma is total plasma concentration (µg/mL).
The unbound brain-to-plasma ratio, Kp,uu,brain, was calculated using Equation (13) according to the CMA [37], where Kp,brain is the total brain-to-plasma ratio, fu,plasma is the unbound fraction in plasma as measured with equilibrium dialysis, and Vu,brain is the unbound volume of distribution in brain measured with the brain slice technique. (13) Kp,uu,brain=Kp,brain/fu,plasma×Vu,brain

[2] = rat, Kp,uu,cell
Description: (§1) The brain slice assay was performed according to previously published protocols. Three animals per study group were investigated. All glassware used in the brain slice experiments was silanized using dimethyldichlorosilane in heptane to avoid non-specific binding of the cyclic peptides to glass. In short, the silanization solution was added to the glassware and left there for one hour, after which the glassware was rinsed with methanol and then placed in a heating cabinet to cure. Slicing was performed with a Leica VT1200 microtome slicer (Leica Microsystems, Wetzlar, Germany). […] At the end of the incubation, two 200 µL samples of aECF were taken and mixed with blank brain homogenate (1:4, w:v) for assessment of unbound buffer concentration, Cbuffer (nanomoles per mL). Thereafter, the brain slices were individually sampled, carefully dried on filter paper, weighed, and homogenized in aECF (1:9, w:v) to determine the total amount of drug in the slice, Aslice (nanomoles per g brain). The density of brain tissue was assumed to be 1 g/mL. The key assumption of the assay is achievement of equilibrium during 5 h incubation, with Cbuffer being equal and representing unbound brain slice interstitial concentration. Samples of aECF (200 µL) were also taken from the scintillation vial without brain slices at the start and at the end of the incubation to determine the relative recovery and thermostability of the peptides. The unbound volume of distribution in brain, Vu,brain (mL/g brain), was calculated using Equation (3). (3) Vu,brain =Aslice−Vi×Cbuffer/Cbuffer(1−Vi) where Vi is the volume of buffer film that coats the slice and equals to 0.094 mL/g brain [39].
(§2) To study the potential mechanism of intracellular distribution of the peptides, several exploratory experiments were performed (Figure 2a). […] In addition, the role of endocytosis and pH partitioning-driven distribution was investigated. The slices were pre-incubated for 30 min with the blockers before the addition of the peptides. Dynasore was used as an inhibitor of dynamin-dependent endocytosis, which is involved in both clathrin and caveolin vesicle formation (Figure 3a). […] Due to high cytotoxicity, the concentration of […] was chosen based on previous studies.
(§3) The unbound intracellular-to-extracellular concentration ratio, Kp,uu,cell, was calculated according to Equation (14) by combining the brain slice derived, Vu,brain, with the measurement of brain tissue binding, fu,brain, from the tissue homogenate study. This allows elucidation of whether the uptake into the brain cells is driven mainly by passive processes and intracellular binding and/or partitioning, such as lysosomal trapping, or by active uptake into the cells. (14) Kp,uu,cell=fu,brain×Vu,brain

brain slices = tested on: brain slices
Description: as §1, §2, §3

[3] = Simulation of unbound brain exposure (two-compartment model, Berkeley Madonna); parameters: species or system rat; details: parameter used in simulation; for clearance: read-out: Systemic clearance, CL (converted); for Vd: rat
Description: The simulation was performed at given initial total plasma concentration to be equal to steady-state concentrations obtained in the neuroPK study (Table 2), utilizing the parameters listed in Supplementary Material Table S3. A two-compartment model consisting of blood and brain compartments with a focus on unbound concentrations was characterized (Supplementary Material Figure S1 describes the structure of the model and the codes).

plasma proteins = details: undiluted rat plasma, 1 µM, equilibrium dialysis 6 h 37 °C
Description: Peptide binding to plasma proteins, brain tissue homogenate, and lung tissue homogenate as well as to neuronal and astrocyte cell culture homogenates was investigated using equilibrium dialysis [47]. Undiluted plasma and brain from three peptide-naïve rats were used in the experiment. The brain homogenate was prepared by homogenizing 1 part brain with 4 parts of phosphate-buffered saline (PBS, pH 7.4). […] Semi-permeable membranes with a molecular weight cut-off of 12–14 kDa were used and placed in an HTD96b apparatus (HTDialysis, Gales Ferry, CT, USA). The undiluted plasma and respective homogenates were spiked with individual peptide to a concentration of 1 µM and were dialyzed against PBS (pH 7.4). Five technical replicates were prepared per biological replicate. The experiment was run for 6 h at 37 °C in a MaxQ4450 shaker (Thermo Fisher Scientific, NinoLab, Sweden) at 200 rpm. […] Aliquots (80 µL) were taken from the buffer and plasma/homogenate sides. To compensate for any differences in matrix during bioanalysis, the plasma and homogenate samples were mixed with equal volumes of blank buffer, and the buffer samples were mixed with an equal volume of relevant blank plasma/homogenate. Spiked plasma and respective homogenate samples were incubated to control for relative recovery and thermal stability of the peptides in respective matrices.
The unbound fraction in undiluted plasma was calculated using Equation (5), where Cbuffer is the unbound concentration of peptide in the buffer and Cplasma is the total concentration of peptide in plasma at 6 h. The binding of peptide in various homogenates was assessed in two steps. First, the fraction of unbound peptide in the diluted homogenate, fu,h,D, was calculated using Equation (6), where Chomogenate is the total concentration of peptide in respective homogenate at 6 h. Second, the correction for the dilution was implemented as described in Equation (7), where D is the dilution factor used in the preparation [47]. D was 5 for brain and lung homogenates and on average 35.3 for the cell culture studies, as determined based on the total protein content and the total volume of lysate. (5) fu,plasma=Cbuffer/Cplasma (6) fu,h,D=Cbuffer/Chomogenate (7) fu,tissue/cell=1/D/((1/fu,h,D )−1)+1/D

[4] = Unbound intracellular-to-extracellular (interstitial) concentration ratio, brain slices 37 °C, fu,brain × Vu,brain
[5] = rat brain slices, 200 nM, 5 h, 37 °C
[6] = brain tissue homogenate, equilibrium dialysis
[7] = rat weight 0.3 kg, read-out: Apparent volume of distribution, Vd
[8] = read-out: Apparent volume of distribution unbound, Vd,u

| SMILES | Half-life, t½ (in vivo; plasma) | Kp at 4 h [1] | Kp uu [1] | Kp,uu,brain as percent equilibrating across the BBB [1] | Total brain-to-plasma concentration ratio, Kp,brain [1] | Unbound brain-to-plasma concentration ratio, Kp,uu,brain [1] | Total steady-state plasma concentration, Cplasma,ss [1] | Kp uu [2, 4] | Unbound volume of distribution in brain, Vu,brain (brain slices; brain slices incubated at 4 °C) | Unbound volume of distribution in brain, Vu,brain (brain slices; [5]) | clearance ([3]; rat weight 0.3 kg) | Vd [3, 7] | Vd [3, 8] | Fraction unbound in plasma, fu,plasma (plasma proteins) | other results |
| --- | --- | --- | --- | --- | --- | --- | --- | --- | --- | --- | --- | --- | --- | --- | --- |
| CC(C)C[C@@H]1NC(=O)CNC(=O)[C@H](CC(N)=O)NC(=O)[C@H](CCCNC(=N)N)NC(=O)[C@H]([C@@H](C)O)NC(=O)[C@@H]2CSSC[C@@H]3NC(=O)[C@H]([C@@H](C)O)NC(=O)CNC(=O)CNC(=O)[C@H](C(C)C)NC(=O)[C@@H]4CSSC[C@H](NC(=O)[C@H]([C@@H](C)O)NC(=O)[C@H](CSSC[C@H](NC(=O)[C@H](C(C)C)NC(=O)[C@@H]5CCCN5C1=O)C(=O)NCC(=O)N[C@@H](CCC(=O)O)C(=O)N[C@@H]([C@@H](C)O)C(=O)N4)NC(=O)CNC(=O)[C@@H]1CCCN1C(=O)[C@H]([C@@H](C)O)NC(=O)[C@H](CC(N)=O)NC3=O)C(=O)N[C@@H](CO)C(=O)N[C@@H](Cc1c[nH]c3ccccc13)C(=O)N1CCC[C@H]1C(=O)N[C@@H](C(C)C)C(=O)N2 [Kalata B1] | 35.8 ± 3.52 min | 0.23 | 0.005 | 0.5% | 0.234 ± 0.083 | 0.00479 ± 0.0023 | 1096 nmol/L | 9.7 | 1.12 mL/g brain | 152 ± 29.9 mL/g brain | 0.48 mL/min | 0.0966 L | 0.029 L | 0.299 ± 0.095 | AUC(0-inf) (in vivo; in vivo): 2800 ng·h/mL; Vd (in vivo; in vivo): 0.322 ± 0.0887 L/kg; clearance (in vivo; in vivo): 1.6 ± 0.396 mL/min/kg; half-life (in vivo; in vivo, plasma): 35 min; Kp uu ([2]; brain slices incubated at 4 °C): 0.0721; Reduction in Kp,uu,cell from 37 °C to 4 °C (brain slices; brain slices): 138 fold; Intra-brain distribution (Vu,brain) relative to SFTI-1 (brain slices; brain slices 37 °C): ca. 350 fold; Unbound intracellular-to-extracellular (interstitial) concentration ratio, Kp,uu,cell (brain slices; brain slices 37 °C, fu,brain × Vu,brain): 9.73 ± 3.35; Reduction in Vu,brain after pre-incubation with dynasore (brain slices; brain slices, dynasore 50 µM, 30 min pre-incubation): 23%; Unbound volume of distribution in brain, Vu,brain (brain slices; rat brain slices, 200 nM, 5 h, 37 °C, listed as kalata B1): 152 mL/g brain; Bound to brain tissue constituents (in vitro; [6]): 93%; fraction unbound (in vitro; rat, brain homogenate): 0.0639 ± 0.0072 |
| CC[C@H](C)[C@@H]1NC(=O)[C@@H]2CCCN2C(=O)[C@@H]2CCCN2C(=O)[C@H]([C@@H](C)CC)NC(=O)[C@H](CO)NC(=O)[C@H](CCCCN)NC(=O)[C@H]([C@@H](C)O)NC(=O)[C@@H]2CSSC[C@H](NC1=O)C(=O)N[C@@H](Cc1ccccc1)C(=O)N1CCC[C@H]1C(=O)N[C@@H](CC(=O)O)C(=O)NCC(=O)N[C@@H](CCCNC(=N)N)C(=O)N2 [SFTI-1, sunflower trypsin inhibitor-1] | 20.3 ± 3.50 min | 0.06 | 0.13 | 13% | 0.0618 ± 0.0318 | 0.129 ± 0.0698 | 400 nmol/L | 0.415 ± 0.079 | 0.56 mL/g brain | 0.436 mL/g brain and 0.436 ± 0.064 mL/g brain | 0.545 mL/min | 0.0573 L | 0.054 L | 0.936 ± 0.038 | Total plasma concentration post 120 min time point (below the quantification limit) (in vivo; 10 min infusion 0.5 mg/kg): < 5 ng/mL; AUC(0-inf) (in vivo; plasma): 1290 ng·h/mL; Vd (in vivo; plasma): 0.191 ± 0.0344 L/kg; clearance (in vivo; plasma): 1.82 ± 0.48 mL/min/kg; half-life (in vivo; plasma): 20 min; Kp uu ([2]; mean values across experimental conditions, brain slices, 4 °C, inhibition of endocytosis, or dissipation of the pH gradient): 0.3 to 0.47; Brain tissue binding (in words) (in vitro; [6]): almost no brain tissue-binding capacity; fraction unbound at 6 h, 1 µM (in vitro; rat, brain homogenate (1 part brain with 4 parts PBS), pH 7.4): 0.951 ± 0.115; CLin [3]: 0.0017 L/h; CLout [3]: 0.01317 L/h; Systemic clearance unbound, CLu [3]: 0.0307 L/h; Total steady-state plasma concentration, Cplasma,ss [3]: 0.6052 mg/L; Unbound steady-state plasma concentration, Cplasma,u,ss [3]: 0.5665 mg/L |
